Series [1] is described as follows: Solubility of drinabant in excipients. In kind it is physicochemical. How it is done: Drinabant may be added to a fixed volume of aqueous solution with and without various amounts of water soluble carriers such as Solutol HS 15 in screw capped bottles. […] Filtered solutions are then analyzed for drinabant concentration using an appropriate method such as UV/visible spectrophotometry at an appropriate wavelength (nm) or by HPLC.
Two different categories of excipients, described in the literature as injectable intravenously, were tested for the solubility of drinabant:
(§1) The chemical composition of the selected excipients, as well the solubility of drinabant, are renorted in the table below.

Series [2] in a line: Stability at RT of drinabant in the saturated solution. In kind it is physicochemical.
Source text: as §1

For series [3] the following is noted: cited from earlier work.

The structures appear in SMILES notation. A value given as a limit tells only on which side of the number the result lay.

On to `CS(=O)(=O)N(c1cc(F)cc(F)c1)C1CN(C(c2ccc(Cl)cc2)c2ccc(Cl)cc2)C1` [drinabant], for which the drinabant solubility in series [1] (in Cremophor EL (POE hydrogenated castor oil)) is on record as 49.4 mg/g; in series [1] (in Glycerol) it was <<0.0001 mg/g; in series [1] (in Glycofurol), 139.4 mg/g; in series [1] (in PEG 400) it was 50 mg/g; in series [1] (in PS80 VG (POE monooleate)), 48.8 mg/g; in series [1] (in Propylene glycol) it was 7 mg/g. In addition, the drinabant solubility in series [1] (in Solutol HS15 (PEG hydroxystearate), at 40° C.) was determined as 64.6 mg/g. The “Stability at RT of drinabant in the saturated solution” value in series [2] (in Cremophor EL), in series [2] (in PS80 VG) and in series [2] (in Solutol HS15) was “Stable” throughout. The Tmax – broadly, the time at which the peak concentration occurs – in series [3] (oral drinabant) is reported as more than 3 h. Further, in series [3] (oral, up to 240 mg up to 3 weeks (Phase I), 60 mg up to 24 weeks (Phase II)), the safety and tolerability entry is “safe and well tolerated”.
